# Measured values from US6376175B1, “Methods of discovering chemicals capable of functioning as gene expression modulators” (OSI Pharmaceuticals, Inc., priority 1989, dated 2002).
# System: secreted G-CSF protein
# Test: Two-antibody sandwich immunoassay of G-CSF secreted by 5637 bladder carcinoma cells
# Assay type: cell-based, human
# Details: 5637 cells, 48 hours, serum-containing media; TNF-alpha 5 ng/ml; #542 50 uM; #1780 1 uM and 0.2 uM; FIG. 55
# Protocol: Supernatants from 5637 bladder carcinoma cells incubated with chemicals registering as positives in the G-CSF promoter/luciferase High-Throughput assay were assayed for secreted G-CSF protein using the two-antibody sandwich immunoassay (96). The G-CSF Assay kit manufactured by Oncogene Science, Inc. was used and the manufacturer's instructions were followed.
# The levels of G-CSF in the cell supernatants were determined by a sandwich-antibody assay as described in Materials and Methods (FIG. 55).
substance,measurement,value
TNF-alpha,G-CSF secretion into media,increased G-CSF secretion
